From patent US7208502B2, “Methods of treating conditions associated with an Edg-3 receptor” (Maniv Energy Capital, priority 2002, dated 2007)

Columns and labels:
[1] = target: T1, Edg-7 (Homo sapiens, UniProt Q9UBY5); assay: Intracellular calcium assay, LPA-stimulated, HTC cells expressing Edg-7; assay type: cell-based; settings: concentrations as high as 20 µM
T1 construct: expressed in transfected cells; host or cells: HTC rat hepatoma cells
T1 sequence (Q9UBY5 1-353): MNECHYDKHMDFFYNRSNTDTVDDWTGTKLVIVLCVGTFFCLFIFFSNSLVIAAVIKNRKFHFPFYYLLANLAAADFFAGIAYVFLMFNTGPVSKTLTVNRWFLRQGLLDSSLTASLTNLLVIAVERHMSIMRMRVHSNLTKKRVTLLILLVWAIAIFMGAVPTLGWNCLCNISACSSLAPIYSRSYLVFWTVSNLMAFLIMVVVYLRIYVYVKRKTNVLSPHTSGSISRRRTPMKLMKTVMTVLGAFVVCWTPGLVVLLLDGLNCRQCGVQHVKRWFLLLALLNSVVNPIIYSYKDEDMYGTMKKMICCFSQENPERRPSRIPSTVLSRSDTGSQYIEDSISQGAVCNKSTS

[2] = target: T2, Edg-2 (Homo sapiens, UniProt Q92633); assay: Intracellular calcium assay, LPA-stimulated, HTC cells expressing Edg-2; assay type: cell-based; settings: concentrations as high as 20 µM
T2 construct: expressed in transfected cells; host or cells: HTC rat hepatoma cells
T2 sequence (Q92633 whole entry): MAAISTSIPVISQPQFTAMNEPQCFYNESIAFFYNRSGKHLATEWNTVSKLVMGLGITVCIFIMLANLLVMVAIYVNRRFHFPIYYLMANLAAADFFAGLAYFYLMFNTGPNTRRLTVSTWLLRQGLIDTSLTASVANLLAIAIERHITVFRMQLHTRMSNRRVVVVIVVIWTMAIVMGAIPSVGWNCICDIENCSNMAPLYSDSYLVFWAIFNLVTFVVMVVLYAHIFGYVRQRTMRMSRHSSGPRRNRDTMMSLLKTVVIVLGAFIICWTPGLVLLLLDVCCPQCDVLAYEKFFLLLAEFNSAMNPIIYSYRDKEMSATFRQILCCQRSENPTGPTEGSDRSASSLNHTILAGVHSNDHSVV

[3] = target: T3, Dopamine D2L (Homo sapiens, UniProt P14416); assay: Radioligand binding assay, 3H Spiperone; settings: 10 μM; significance criteria ≧50% of max stimulation or inhibition
T3 construct: expressed in transfected cells; host or cells: CHO cells
T3 sequence (P14416 whole entry): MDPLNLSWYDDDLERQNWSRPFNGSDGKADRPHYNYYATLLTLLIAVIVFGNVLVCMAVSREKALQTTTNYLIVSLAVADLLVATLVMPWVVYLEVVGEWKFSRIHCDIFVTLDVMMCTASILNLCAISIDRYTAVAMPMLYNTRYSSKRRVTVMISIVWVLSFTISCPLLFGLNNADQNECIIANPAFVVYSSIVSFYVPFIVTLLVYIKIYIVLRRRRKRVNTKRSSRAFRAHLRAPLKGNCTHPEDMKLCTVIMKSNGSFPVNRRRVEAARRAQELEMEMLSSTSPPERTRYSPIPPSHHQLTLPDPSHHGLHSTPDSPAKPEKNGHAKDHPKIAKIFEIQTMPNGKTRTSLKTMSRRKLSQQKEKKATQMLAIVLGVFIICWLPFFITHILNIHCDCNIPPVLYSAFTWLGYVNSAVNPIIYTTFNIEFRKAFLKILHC
Description: In order to test the selectivity of compounds, various enzyme assays as well as radioligand binding assays were performed using numerous non-Edg receptor targets as listed below.
A radioligand binding assay was performed using adrenergic α1 according to the method of Greengrass and Bremner 1979, Eur. J. Pharmacol. 55:323–326. A radioligand binding assay was performed using adrenergic α2 according to the method of Boyajian and Leslie, 1987, J. Pharmacol. Exp. Ther. 241:1092–1098. A radioligand binding assay was performed using adrenergic β according to the method of Feve et al., 1994, Proc. Natl. Acad. Sci. USA 91:5677–5681. A radioligand binding assay was performed using angiotensin AT2 according to the method of Whitebread et al., 1991, Biochem. Biophys. Res. Comm. 181:1365–1371. A radioligand binding assay was performed using calcium channel Type L, dihydropyridine according to the method of Ehlert et al., 1982, Life Sci. 30:2191–2202. A radioligand binding assay was performed using dopamine D2L according to the method of Bunzo et al., 1988, Nature 336:783–787. A radioligand binding assay was performed using endothelin ETA according to the method of Mihara et al., 1994, J. Phrmacol. Exp Ther. 268:1122–1127. A radioligand binding assay was performed using histamine H1 Central according to the method of Hill et al., 1978, J. Neurochem. 31:997–1004. […]
Quantitation Method: Radioligand Binding […]

[4] = target: T4, Edg-4 (Homo sapiens, UniProt Q9HBW0); assay: Intracellular calcium assay, LPA-stimulated, HTC cells expressing Edg-4; assay type: cell-based; settings: concentrations as high as 20 µM
T4 construct: expressed in transfected cells; host or cells: HTC rat hepatoma cells
T4 sequence (Q9HBW0 whole entry): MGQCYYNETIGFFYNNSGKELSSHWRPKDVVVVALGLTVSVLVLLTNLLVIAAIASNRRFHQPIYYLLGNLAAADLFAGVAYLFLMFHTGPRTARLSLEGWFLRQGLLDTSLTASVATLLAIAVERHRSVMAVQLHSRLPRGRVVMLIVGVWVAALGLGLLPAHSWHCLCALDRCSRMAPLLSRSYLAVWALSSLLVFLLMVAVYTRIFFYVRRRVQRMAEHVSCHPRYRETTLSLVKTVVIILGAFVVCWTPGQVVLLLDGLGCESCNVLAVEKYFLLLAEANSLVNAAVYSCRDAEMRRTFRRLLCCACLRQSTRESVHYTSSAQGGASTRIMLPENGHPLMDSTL

[5] = target: T5, Edg-8 (Homo sapiens, UniProt Q9H228); assay: Intracellular calcium assay, S1P-stimulated, HTC cells expressing Edg-8; assay type: cell-based; settings: concentrations as high as 20 µM
T5 construct: expressed in transfected cells; host or cells: HTC rat hepatoma cells
T5 sequence (Q9H228 whole entry): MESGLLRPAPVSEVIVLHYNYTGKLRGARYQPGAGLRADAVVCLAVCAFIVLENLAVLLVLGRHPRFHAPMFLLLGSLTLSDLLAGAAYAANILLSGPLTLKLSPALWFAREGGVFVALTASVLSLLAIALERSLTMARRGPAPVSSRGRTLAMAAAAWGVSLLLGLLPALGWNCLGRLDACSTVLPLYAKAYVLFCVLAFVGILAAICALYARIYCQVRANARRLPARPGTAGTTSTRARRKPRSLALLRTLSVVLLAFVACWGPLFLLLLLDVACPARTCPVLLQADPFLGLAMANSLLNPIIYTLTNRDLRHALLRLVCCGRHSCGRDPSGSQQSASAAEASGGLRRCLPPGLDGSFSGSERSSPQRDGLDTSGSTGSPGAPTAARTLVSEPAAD

SMILES: Cc1c(-c2ccccc2)nc2ccccc2c1C(=O)NCc1ccc(F)cc1 [Compound 101, 3-methyl-2-phenyl-quinoline-4-carboxylic acid 4-fluoro-benzylamide]
- inhibition of LPA-stimulated calcium increases, Edg-7 [1]: did not inhibit
- inhibition of LPA-stimulated calcium increases, Edg-2 [2]: did not inhibit
- activity in standard binding assay, Dopamine D2L [3]: no activity
- inhibition of LPA-stimulated calcium increases, Edg-4 [4]: did not inhibit
- inhibition of S1P-stimulated calcium increases, Edg-8 [5]: did not inhibit
